Source: PubChem BioAssay AID330 (DTP/NCI, 2004)
Values joined by “and” are separate entries in the source; they are usually repeats but may differ in a detail not shown here. Identical values can stand only once. Inconclusive results and toxic doses are left out.

Test system: P388 leukemia ip, CD2F1 mice, survival T/C
Assay: NCI In Vivo Anticancer Drug Screen. Data for tumor model P388 Leukemia (intraperitoneal) in CD2F1 (CDF1) mice
Conditions: endpoint: median survival time, higher = longer survival
How it was run: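 Mice carrying the transplanted tumor received test compound or vehicle. Survival was recorded in each group, and the value is the treated-group measurement divided by that of the vehicle-treated control group.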

[1] = dose: 50.0 mg/kg/injection, schedule: Q01DX009 (ip), vehicle: saline with Tween-80
[2] = dose: 100.0 mg/kg/injection, schedule: Q01DX009 (ip), vehicle: saline with Tween-80
[3] = dose: 200.0 mg/kg/injection, schedule: Q01DX009 (ip), vehicle: saline with Tween-80
[4] = dose: 50.0 mg/kg/injection, schedule: Q01DX005 (ip), vehicle: saline
[5] = dose: 100.0 mg/kg/injection, schedule: Q01DX005 (ip), vehicle: saline
[6] = dose: 60.0 mg/kg/injection, schedule: Q01DX005 (ip), vehicle: Klucel (hydroxypropylcellulose) (HPC)
[7] = dose: 120.0 mg/kg/injection, schedule: Q01DX005 (ip), vehicle: Klucel (hydroxypropylcellulose) (HPC)
[8] = dose: 240.0 mg/kg/injection, schedule: Q01DX005 (ip), vehicle: Klucel (hydroxypropylcellulose) (HPC)
[9] = dose: 60.0 mg/kg/injection, schedule: Q01DX005 (ip), vehicle: saline
[10] = dose: 120.0 mg/kg/injection, schedule: Q01DX005 (ip), vehicle: saline
[11] = dose: 240.0 mg/kg/injection, schedule: Q01DX005 (ip), vehicle: saline with Tween-80

`O=C1/C(=C\c2ccccc2)C/C1=C\c1ccccc1` was tested, and the T/C (dose: 100.0 mg/kg/injection, schedule: Q04DX003 (ip), vehicle: Klucel (hydroxypropylcellulose) (HPC)) was 97 % of control, the T/C (dose: 200.0 mg/kg/injection, schedule: Q04DX003 (ip), vehicle: Klucel (hydroxypropylcellulose) (HPC)) was 100 % of control and the T/C (dose: 400.0 mg/kg/injection, schedule: Q04DX003 (ip), vehicle: Klucel (hydroxypropylcellulose) (HPC)) was 95 % of control.
For `CCc1ccc(S(=O)(=O)O)cc1`, the T/C [1] was 100 % of control, the T/C [2] was 94 % of control and the T/C [3] was 98 % of control.
`c1cncc(-c2c3ccccc3cc3ccc4ccccc4c23)c1` was tested, and the T/C (dose: 50.0 mg/kg/injection, schedule: Q01DX005 (ip), vehicle: saline with Tween-80) was 104 % of control, the T/C (dose: 100.0 mg/kg/injection, schedule: Q01DX005 (ip), vehicle: saline with Tween-80) was 103 % of control and the T/C (dose: 200.0 mg/kg/injection, schedule: Q01DX005 (ip), vehicle: saline with Tween-80) was 100 % of control.
With `O=N[O-].O=N[O-].[I][Pt][I]` the T/C (dose: 12.5 mg/kg/injection, schedule: Q01DX005 (ip), vehicle: saline) was 116 % of control and 117 % of control, the T/C (dose: 25.0 mg/kg/injection, schedule: Q01DX005 (ip), vehicle: saline) was 124 % of control and the T/C [4] was 105 % of control. For the same compound, the T/C [5] was 124 % of control.
In the case of `O=C(c1cc2ccccc2o1)N1CCN(Cc2ccccc2)CC1`, the T/C (dose: 50.0 mg/kg/injection, schedule: Q01DX009 (ip), vehicle: Klucel (hydroxypropylcellulose) (HPC)) is reported as 102 % of control, the T/C (dose: 100.0 mg/kg/injection, schedule: Q01DX009 (ip), vehicle: Klucel (hydroxypropylcellulose) (HPC)) is reported as 101 % of control and the T/C (dose: 200.0 mg/kg/injection, schedule: Q01DX009 (ip), vehicle: Klucel (hydroxypropylcellulose) (HPC)) is reported as 109 % of control.
In the case of `CCOP(=O)(CS(=O)CCC1(C)NC(=O)NC1=O)OCC` (centres undefined), the T/C [4] is reported as 100 % of control, the T/C [5] is reported as 101 % of control and the T/C (dose: 200.0 mg/kg/injection, schedule: Q01DX005 (ip), vehicle: saline) is reported as 103 % of control.
For `CN1C(=S)C(=N)OC1c1ccccc1F` (centres undefined), the T/C [6] was 106 % of control, the T/C [7] was 105 % of control and the T/C [8] was 103 % of control.
`N=c1ccccn1CCO` was tested, and the T/C [9] was 94 % of control and the T/C [10] was 99 % of control.
`CC1(C)CC(=O)C2C(C1)OC1CC(C)(C)CC(=O)C1C2c1ccc2c(c1)OCO2` (centres undefined) was tested, and the T/C (dose: 60.0 mg/kg/injection, schedule: Q01DX005 (ip), vehicle: saline with Tween-80) was 104 % of control, the T/C (dose: 120.0 mg/kg/injection, schedule: Q01DX005 (ip), vehicle: saline with Tween-80) was 100 % of control and the T/C [11] was 97 % of control.
In the case of `CCN(CC)CCOC(=O)C(OCCCc1ccccc1)(c1ccccc1)c1ccccc1`, the T/C (dose: 50.0 mg/kg/injection, schedule: Q01DX005 (ip), vehicle: Klucel (hydroxypropylcellulose) (HPC)) is reported as 111 % of control and the T/C (dose: 100.0 mg/kg/injection, schedule: Q01DX005 (ip), vehicle: Klucel (hydroxypropylcellulose) (HPC)) is reported as 112 % of control.
For `COc1cc(OC)c(NC(=O)NNC(=O)C(=O)NC2CC2)cc1Cl`, the T/C [1] was 99 % of control, the T/C [2] was 97 % of control and the T/C [3] was 98 % of control.
In the case of `O=c1[nH]cnc2[nH]ncc12`, the T/C (dose: 20.0 mg/kg/injection, schedule: Q01DX005 (ip), vehicle: saline with Tween-80) is reported as 104 % of control, the T/C (dose: 40.0 mg/kg/injection, schedule: Q01DX005 (ip), vehicle: saline with Tween-80) is reported as 110 % of control and the T/C (dose: 50.0 mg/kg/injection, schedule: Q01DX009 (ip), vehicle: saline sonified) is reported as 95 % of control. For the same compound, the T/C [1] was 95 % of control, the T/C (dose: 50.0 mg/kg/injection, schedule: Q04DX003 (ip), vehicle: saline sonified) was 109 % of control and the T/C (dose: 50.0 mg/kg/injection, schedule: Q04DX003 (ip), vehicle: saline with Tween-80) was 90 % of control. For the same compound, the T/C (dose: 80.0 mg/kg/injection, schedule: Q01DX005 (ip), vehicle: saline with Tween-80) was 106 % of control, the T/C (dose: 100.0 mg/kg/injection, schedule: Q01DX009 (ip), vehicle: saline sonified) was 100 % of control and the T/C [2] was 95 % of control. The T/C (dose: 100.0 mg/kg/injection, schedule: Q04DX003 (ip), vehicle: saline sonified) was 95 % of control, the T/C (dose: 100.0 mg/kg/injection, schedule: Q04DX003 (ip), vehicle: saline with Tween-80) was 95 % of control and the T/C (dose: 160.0 mg/kg/injection, schedule: Q01DX005 (ip), vehicle: saline with Tween-80) was 104 % of control. For the same compound, the T/C (dose: 200.0 mg/kg/injection, schedule: Q01DX009 (ip), vehicle: saline sonified) was 100 % of control, the T/C (dose: 200.0 mg/kg/injection, schedule: Q04DX003 (ip), vehicle: saline sonified) was 113 % of control and the T/C (dose: 200.0 mg/kg/injection, schedule: Q04DX003 (ip), vehicle: saline with Tween-80) was 104 % of control.
For `COc1ccc(CC[n+]2cccc(C(=O)c3ccccc3)c2)cc1OC`, the T/C (dose: 12.5 mg/kg/injection, schedule: Q04DX002 (ip), vehicle: saline) was 97 % of control, the T/C (dose: 25.0 mg/kg/injection, schedule: Q04DX002 (ip), vehicle: saline) was 105 % of control and the T/C (dose: 50.0 mg/kg/injection, schedule: Q04DX002 (ip), vehicle: saline) was 101 % of control.
With `CN(C)CC(O)Cn1ccnc1[N+](=O)[O-]` (centres undefined) the T/C (dose: 12.5 mg/kg/injection, schedule: Q01DX009 (ip), vehicle: water) was 101 % of control, the T/C (dose: 25.0 mg/kg/injection, schedule: Q01DX009 (ip), vehicle: water) was 101 % of control and the T/C (dose: 50.0 mg/kg/injection, schedule: Q01DX009 (ip), vehicle: water) was 111 % of control. For the same compound, the T/C (dose: 100.0 mg/kg/injection, schedule: Q01DX009 (ip), vehicle: water) was 111 % of control and the T/C (dose: 200.0 mg/kg/injection, schedule: Q01DX009 (ip), vehicle: water) was 113 % of control.
For `C1CCCC2(CC1)OCCO2`, the T/C (dose: 100.0 mg/kg/injection, schedule: Q04DX003 (ip), vehicle: saline) was 101 % of control, the T/C (dose: 200.0 mg/kg/injection, schedule: Q04DX003 (ip), vehicle: saline) was 97 % of control and the T/C (dose: 400.0 mg/kg/injection, schedule: Q04DX003 (ip), vehicle: saline) was 98 % of control.
In the case of `CC1C(O)CCC2=CC(=O)C3(C4(CO)CO4)OC3C21C` (centres undefined), the T/C (dose: 15.0 mg/kg/injection, schedule: Q01DX005 (ip), vehicle: saline) is reported as 102 % of control, the T/C (dose: 30.0 mg/kg/injection, schedule: Q01DX005 (ip), vehicle: saline) is reported as 91 % of control and the T/C [9] is reported as 108 % of control. For the same compound, the T/C (dose: 62.5 mg/kg/injection, schedule: Q01DX005 (ip), vehicle: saline) was 103 % of control, the T/C [10] was 98 % of control and the T/C (dose: 125.0 mg/kg/injection, schedule: Q01DX005 (ip), vehicle: saline) was 110 % of control. For the same compound, the T/C (dose: 250.0 mg/kg/injection, schedule: Q01DX005 (ip), vehicle: saline) was 114 % of control.
In the case of `COc1c2occc2c(OC)c2c(C)c(C(=O)OCCN3CCOCC3)oc12`, the T/C [6] is reported as 96 % of control, the T/C [7] is reported as 91 % of control and the T/C [8] is reported as 91 % of control.
With `COC(=O)C(OC)(OC)C(O)c1ccccc1` (centres undefined) the T/C [9] was 100 % of control, the T/C [10] was 106 % of control and the T/C (dose: 240.0 mg/kg/injection, schedule: Q01DX005 (ip), vehicle: saline) was 113 % of control.
`Cc1cc(NCCCCCCNc2cc(C)nc3cc(N(C)C)ccc23)c2ccc(N(C)C)cc2n1` was tested, and the T/C (dose: 1.56 mg/kg/injection, schedule: Q01DX009 (ip), vehicle: distilled water + Tween-80 + alcohol) was 110 % of control, the T/C (dose: 6.25 mg/kg/injection, schedule: Q01DX009 (ip), vehicle: distilled water + Tween-80 + alcohol) was 151 % of control and the T/C (dose: 12.5 mg/kg/injection, schedule: Q01DX009 (ip), vehicle: distilled water + Tween-80 + alcohol) was 154 % of control and 158 % of control. For the same compound, the T/C (dose: 25.0 mg/kg/injection, schedule: Q01DX009 (ip), vehicle: distilled water + Tween-80 + alcohol) was 178 % of control and 181 % of control.
For `Cc1cc2nc(CC(=O)c3cccnc3)c(=O)[nH]c2cc1C`, the T/C (dose: 7.5 mg/kg/injection, schedule: Q01DX005 (ip), vehicle: saline with Tween-80) was 100 % of control, the T/C (dose: 15.0 mg/kg/injection, schedule: Q01DX005 (ip), vehicle: saline with Tween-80) was 94 % of control and the T/C (dose: 30.0 mg/kg/injection, schedule: Q01DX005 (ip), vehicle: saline with Tween-80) was 92 % of control. For the same compound, the T/C [11] was 88 % of control.
